{"source": "BindingDB's records for doi:10.1111/j.1432-1033.1976.tb10435.x", "about": "(Gesellschaft Fur Molekularbiolische Forschung Mbh, 1976)", "biological_target": "Isoleucine--tRNA ligase (Escherichia coli (strain K12), UniProt P00956)", "sequence (P00956 whole entry)": "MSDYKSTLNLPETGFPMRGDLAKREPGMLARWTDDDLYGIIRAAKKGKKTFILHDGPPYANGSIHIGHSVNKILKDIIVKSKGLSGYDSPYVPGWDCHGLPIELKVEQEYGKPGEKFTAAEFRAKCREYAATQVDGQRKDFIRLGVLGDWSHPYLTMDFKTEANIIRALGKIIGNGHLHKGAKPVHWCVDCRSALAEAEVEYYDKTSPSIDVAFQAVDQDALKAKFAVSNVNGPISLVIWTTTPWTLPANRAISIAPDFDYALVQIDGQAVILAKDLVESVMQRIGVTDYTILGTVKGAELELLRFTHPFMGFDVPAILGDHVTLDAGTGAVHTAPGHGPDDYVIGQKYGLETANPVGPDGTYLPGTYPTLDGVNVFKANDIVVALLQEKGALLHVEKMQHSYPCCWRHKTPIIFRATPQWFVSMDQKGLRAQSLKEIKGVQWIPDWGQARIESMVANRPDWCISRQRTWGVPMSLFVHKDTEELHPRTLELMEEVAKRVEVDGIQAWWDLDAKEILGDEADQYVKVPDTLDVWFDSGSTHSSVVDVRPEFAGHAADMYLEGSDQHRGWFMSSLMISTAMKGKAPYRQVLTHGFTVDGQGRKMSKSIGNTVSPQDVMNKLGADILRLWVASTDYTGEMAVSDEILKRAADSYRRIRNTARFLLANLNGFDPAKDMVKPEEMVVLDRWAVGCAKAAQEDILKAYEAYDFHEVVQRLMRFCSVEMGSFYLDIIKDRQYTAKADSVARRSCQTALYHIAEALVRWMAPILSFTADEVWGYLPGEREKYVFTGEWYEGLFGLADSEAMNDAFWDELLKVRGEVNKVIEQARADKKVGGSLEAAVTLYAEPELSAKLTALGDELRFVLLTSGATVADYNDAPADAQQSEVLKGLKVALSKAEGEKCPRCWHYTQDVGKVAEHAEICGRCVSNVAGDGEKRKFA", "test": "Competitive Ligand Binding Assay", "conditions": "pH 7.5; 20 °C", "from_the_text": "Utilizing an analytical ultracentrifuge, the binding constants of various amino acids and isoleucine analogues to IleRS were estimated from their competition with radioactively labeled L-isoleucine."}
{"smiles": "CCC(CC)[C@H](N)C(=O)O", "note": "[(2S)-2-amino-3-ethylpentanoic acid]", "values": [{"measurement": "Ki", "result": 0.56, "unit": "mM"}]}
{"smiles": "CCC[C@@H](CC)C(N)C(=O)O", "note": "(mixture of isomers) [(3R)-2-amino-3-ethylhexanoic acid]", "values": [{"measurement": "Ki", "result": 5, "unit": "mM"}]}
{"smiles": "CCCCC[C@H](N)C(=O)O", "note": "[(2S)-2-aminoheptanoic acid]", "values": [{"measurement": "Ki", "result": 16.7, "unit": "mM"}]}
{"smiles": "CCCC[C@@H](C)C(N)C(=O)O", "note": "(stereo partly drawn) [(3R)-2-amino-3-methylheptanoic acid]", "values": [{"measurement": "Ki", "result": 16.7, "unit": "mM"}]}
{"smiles": "CC(C)(C)C[C@H](N)C(=O)O", "note": "[(2S)-2-amino-4,4-dimethylpentanoic acid]", "values": [{"measurement": "Ki", "result": 12.5, "unit": "mM"}]}
{"smiles": "CC(C)CC[C@H](N)C(=O)O", "note": "[(2S)-2-amino-5-methylhexanoic acid]", "values": [{"measurement": "Ki", "result": 2.5, "unit": "mM"}]}
{"smiles": "CCC[C@H](CC)C(N)C(=O)O", "note": "(stereo partly drawn) [(3S)-2-amino-3-ethylhexanoic acid]", "values": [{"measurement": "Ki", "result": 5, "unit": "mM"}]}
{"smiles": "CCC[C@H](C)[C@H](N)C(=O)O", "note": "[(2S,3S)-2-amino-3-methylhexanoic acid]", "values": [{"measurement": "Ki", "result": 0.05, "unit": "mM"}]}
{"smiles": "CC(C)[C@H](N)CO", "note": "[(2S)-2-amino-3-methylbutan-1-ol]", "values": [{"measurement": "Ki", "result": 14.3, "unit": "mM"}]}
{"smiles": "CCCC[C@H](C)C(N)C(=O)O", "note": "(stereo partly drawn) [(3S)-2-amino-3-methylheptanoic acid]", "values": [{"measurement": "Ki", "result": 2.5, "unit": "mM"}]}
{"smiles": "CCC(CC)C(N)C(=O)O", "note": "(stereo unspecified) [2-amino-3-ethylpentanoic acid]", "values": [{"measurement": "Ki", "result": 0.53, "unit": "mM"}]}
{"smiles": "CC(C)CCC(N)C(=O)O", "note": "(racemic) [2-amino-5-methylhexanoic acid]", "values": [{"measurement": "Ki", "result": 3.33, "unit": "mM"}]}
{"smiles": "CC(C)[C@@H](C)C(N)C(=O)O", "note": "(stereo partly drawn) [(3R)-2-amino-3,4-dimethylpentanoic acid]", "values": [{"measurement": "Ki", "result": 3.33, "unit": "mM"}]}
{"smiles": "CCC(C)(C)[C@H](N)C(=O)O", "note": "(racemic) [2-amino-3,3-dimethylpentanoic acid]", "values": [{"measurement": "Ki", "result": 1.25, "unit": "mM"}]}
{"smiles": "CC(C)(C)CC(N)C(=O)O", "note": "(racemic) [2-amino-4,4-dimethylpentanoic acid]", "values": [{"measurement": "Ki", "result": 12.5, "unit": "mM"}]}
{"smiles": "CCC(C)[C@H](N)CO", "note": "(stereo partly drawn) [(2S)-2-amino-3-methylpentan-1-ol]", "values": [{"measurement": "Ki", "result": 8.33, "unit": "mM"}]}
{"smiles": "CC(C)[C@@H](C)[C@H](N)C(=O)O", "note": "[(2S,3R)-2-amino-3,4-dimethylpentanoic acid]", "values": [{"measurement": "Ki", "result": 5, "unit": "mM"}]}
{"smiles": "CC[C@H](C)C[C@H](N)C(=O)O", "note": "[(2S,4S)-2-amino-4-methylhexanoic acid]", "values": [{"measurement": "Ki", "result": 2, "unit": "mM"}]}
{"smiles": "CCC[C@@H](C)C(N)C(=O)O", "note": "(stereo partly drawn) [(3R)-2-amino-3-methylhexanoic acid]", "values": [{"measurement": "Ki", "result": 1.67, "unit": "mM"}]}
{"smiles": "CCC[C@H](C)C(N)C(=O)O", "note": "(stereo partly drawn) [(3S)-2-amino-3-methylhexanoic acid]", "values": [{"measurement": "Ki", "result": 0.0588, "unit": "mM"}]}
{"smiles": "CC(C)[C@H](C)[C@H](N)C(=O)O", "note": "[(2S,3S)-2-amino-3,4-dimethylpentanoic acid]", "values": [{"measurement": "Ki", "result": 0.0455, "unit": "mM"}]}
